These results are taken from patent publication US20260285831A1, “LACTAM DERIVATIVES FOR INHIBITING NLRP3 AND USES THEREOF” (Ventus Therapeutics U.S., Inc., priority 2023, published 2026).

SMILES strings stand for the structures. Read-outs that look alike come from different tables or passages of the source.

For the experiment, the target named is T1, human NLRP3 (Homo sapiens, UniProt Q96P20).
T1 construct: Human whole blood is drawn from healthy volunteers after obtaining written informed consent; from tissue; host or cells: human whole blood from healthy volunteers (heparin lithium tubes)
T1 sequence (Q96P20 whole entry): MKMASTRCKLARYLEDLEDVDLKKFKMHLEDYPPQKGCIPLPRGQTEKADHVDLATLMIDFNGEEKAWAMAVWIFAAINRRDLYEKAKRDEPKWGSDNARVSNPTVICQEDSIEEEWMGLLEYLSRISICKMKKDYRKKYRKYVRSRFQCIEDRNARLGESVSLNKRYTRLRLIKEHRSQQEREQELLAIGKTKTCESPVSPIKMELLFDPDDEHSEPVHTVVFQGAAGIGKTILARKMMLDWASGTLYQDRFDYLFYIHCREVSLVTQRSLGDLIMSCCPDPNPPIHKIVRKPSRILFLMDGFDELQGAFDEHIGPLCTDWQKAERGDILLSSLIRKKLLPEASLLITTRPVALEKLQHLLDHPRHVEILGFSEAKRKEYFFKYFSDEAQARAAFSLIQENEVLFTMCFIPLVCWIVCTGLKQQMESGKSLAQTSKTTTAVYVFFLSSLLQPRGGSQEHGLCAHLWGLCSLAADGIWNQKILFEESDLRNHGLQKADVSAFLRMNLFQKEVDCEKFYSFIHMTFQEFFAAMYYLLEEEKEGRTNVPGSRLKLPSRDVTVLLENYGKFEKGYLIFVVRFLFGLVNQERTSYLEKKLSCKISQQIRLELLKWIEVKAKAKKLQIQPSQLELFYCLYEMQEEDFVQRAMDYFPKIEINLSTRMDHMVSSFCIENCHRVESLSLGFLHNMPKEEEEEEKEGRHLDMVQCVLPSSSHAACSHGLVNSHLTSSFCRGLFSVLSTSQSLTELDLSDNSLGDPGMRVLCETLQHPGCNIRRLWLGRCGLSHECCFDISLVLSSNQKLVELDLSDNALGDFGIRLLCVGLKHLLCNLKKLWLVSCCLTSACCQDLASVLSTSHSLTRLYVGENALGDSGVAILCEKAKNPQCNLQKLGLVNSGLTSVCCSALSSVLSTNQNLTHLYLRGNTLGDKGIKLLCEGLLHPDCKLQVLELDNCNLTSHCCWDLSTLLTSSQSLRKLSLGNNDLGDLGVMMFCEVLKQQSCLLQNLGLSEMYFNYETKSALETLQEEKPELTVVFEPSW
In words: Human whole blood (hWB) NLRP3 assay (IL-1β release after LPS priming and ATP activation). The experiment is classed as cell-based. The note with it: for fold improvement in activity compared to Compound 3 (hWB IL-1β IC50): additional ring N atom versus Compound 3 with lactam ring N as sole N ring atom, Table E; for IC50: human whole blood. On the procedure:
Human Whole Blood (hWB) NLRP3 Assay
Human whole blood is drawn from healthy volunteers after obtaining written informed consent. Heparin lithium coated tubes are used to collect blood from volunteers. Blood samples are distributed on 96 well plates using 90 μl per well.
Priming procedure: Priming is performed by adding 5 μl of LPS (026:B6; Sigma L-2654) at a final concentration of 1 μg/ml for 4.5 hours in a humidified incubator with 37° C., 5% CO2. Thirty minutes prior to NLRP3 activation, 5 μl of a 20× compound solution or vehicle (2% dimethylsulfoxide (DMSO)) is added to each well and plates were incubated on a shaker (450 rpm) in a humidified incubator with 37° C., 5% CO2.
Alternative priming procedure: Thirty minutes prior to LPS priming, 5 μl of a 20× compound solution or vehicle (2% dimethylsulfoxide (DMSO)) is added to each well and plates were incubated on a shaker (450 rpm) in a humidified incubator with 37° C., 5% CO2. Priming is performed by adding 5 μl of LPS (026:B6; Sigma L-2654) at a final concentration of 1 μg/ml for 5 hours in a humidified incubator with 37° C., 5% CO2.
Activation is then performed by adding 3.3 μl of a 31×ATP solution per well. At the end of the 30 minutes stimulation, the plates are centrifuged (800 g, 10 min, room temperature) and the plasma from each well is frozen at −80° C. […] levels in the supernatant were analyzed using a mesoscale discovery assay (MSD K151TUK) according to the manufacturers' instructions.
There is no detectable difference in assay IC50 results using the priming procedure versus the alternative priming procedure.
Data provided in Table C, below. hWB […] Assay: A represents an IC50 value <0.3 μM; B represents an IC50 value ≥0.3 μM and <0.5 μM; C represents an IC50 value ≥0.5 μM and <1.0 μM; D represents an IC50 value ≥1.0 μM and <10 μM; E represents an IC50 value ≥10 μM. Dashed (--) lines indicate no data available.

Setting [1] is: LPS 1 μg/ml priming, ATP activation, Table C, class symbols, read-out: hWB IL-1β IC50.
[2] abbreviates: numeric values of Tables D and E, read-out: hWB IL-1β IC50.

For `CC1(C)C(=O)N(c2nccn(CCCC(=O)O)c2=O)c2c(F)cc(C3CC3)c(F)c21` [Compound 10, 4-(3-(5-cyclopropyl-4,7-difluoro-3,3-dimethyl-2-oxoindolin-1-yl)-2-oxopyrazin-1(2H)-yl)butanoic acid], the “fold improvement in activity compared to Compound 3 (hWB IL-1β IC50)” value is listed as 3-5 fold. Under setting [1], the IC50 is 0.3 to 0.5 µM. Under setting [2], the IC50 was found to be 0.39 µM.
Take `CC1(C)C(=O)N([C@@H]2CC(C)(C)N(CCCC(=O)O)C2=O)c2c(F)cc(C3CC3)c(F)c21` (single isomer, unassigned) [Compound 25A]: the 50% inhibitory concentration (IC50) under setting [1] was at least 10 µM.
Turning to `CC1(C)C(=O)N(c2c(=O)n(CCCC(=O)O)cc3ccccc23)c2c(F)cc(C3CC3)c(F)c21` [Compound 15, 4-(4-(5-cyclopropyl-4,7-difluoro-3,3-dimethyl-2-oxoindolin-1-yl)-3-oxoisoquinolin-2(3H)-yl)butanoic acid], the IC50 under setting [1] was at least 10 µM.
Regarding `CC1(C)C(=O)N(c2cncn(CCCC(=O)O)c2=O)c2c(F)cc(C3CC3)c(F)c21` [Compound 8, 4-(5-(5-cyclopropyl-4,7-difluoro-3,3-dimethyl-2-oxoindolin-1-yl)-6-oxopyrimidin-1(6H)-yl)butanoic acid], the “fold improvement in activity compared to Compound 3 (hWB IL-1β IC50)” value is recorded as 3-5 fold. Moreover, under setting [1], the IC50 was in the range of 0.3 to 0.5 µM. For the same compound, the 50% inhibitory concentration (IC50) under setting [2] came out at 0.47 µM.
On to `CC1(C)C(=O)N([C@H]2CCN(CCCC(=O)O)C2=O)c2ccc(C3CC3)c(F)c21` (stereo in doubt) [Compound 18B*, (S)-4-(3-(5-cyclopropyl-4-fluoro-3,3-dimethyl-2-oxoindolin-1-yl)-2-oxopyrrolidin-1-yl)butanoic acid], for which the IC50 under setting [1] was at least 10 µM; the IC50 (class symbol printed beside the numeric value in Tables D and E, read-out: hWB IL-1β IC50 activity class) is at least 10 µM; the 50% inhibitory concentration (IC50) under setting [2] is above 500 µM.

By IC50 is commonly meant the midpoint of a concentration-inhibition curve.
